Measurements taken from PubChem BioAssay AID1963963 (Molecular Pharmacology Branch, DTP, NCI, 2024).
pIC50: −log10 of the molar value.

Tested on: 958667-338-R-J2-PDC tumor spheroids viability
Test: Anticancer human tumor 958667-338-R-J2-PDC patient-derived colon adenocarcinoma cell line growth inhibition [PI3K]
Conditions: spheroids with HUVEC and MSC; for pIC50: curve of first compound; for viability, T/C: stronger effect = lower value
Text: Combinatorial screen of targeted agents with the PI3K inhibitors inavolisib, alpelisib, duvelisib, and copanlisib in multi-cell type tumor spheroids
A high-throughput screen of multi-cell type tumor spheroids was designed to identify active combinations of targeted small molecules and PI3K pathway inhibitors. Complex spheroids include a stromal component modeled by human endothelial cells (HUVEC) and fibroblasts modeled by human mesenchymal stem cells (MSCs). The concentration ranges selected for each drug and investigational agent were based upon clinically achievable concentrations if the clinical Cmax of the agent was known.
Compounds. The drugs and investigational agents: inavolisib (NSC800729), alpelisib (NSC765974), duvelisib (NSC772469), copanlisib (NSC816437), ipatasertib (NSC767898), afuresertib (NSC778305), talazoparib (NSC767125), sapanisertib (NSC764658), selumetinib (NSC741078), tovorafenib (DAY101, NSC766906), vemurafenib (NSC761431), ravoxertinib (NSC781343), sotorasib (NSC818433), MRTX1133 (NSC 836407), abemaciclib (NSC 768073), palbociclib (NSC758247), venetoclax (NSC 766270), SY5609 (NSC837396), enzalutamide (NSC755605), and darolutamide (NSC825331), were obtained from the National Cancer Institute (NCI) Developmental Therapeutics Program Chemical Repository. The FDA-approved anticancer drug set is available from the NCI Developmental Therapeutics Program. […] The stock solutions were prepared in dimethyl sulfoxide (DMSO, Sigma-Aldrich, St. Louis, MO, cat. D2650) at 800-fold the tested concentration and stored at -70 degrees C prior to their use. All drugs and investigational agents were tested over a range starting from a high concentration at or near the clinical Cmax and decreasing in half-log increments. If the clinical Cmax for an agent had not been determined, the highest concentration tested was 10 microM.
Cell Culture. All cells were maintained in an incubator at 37 degrees C and 5% CO2 with 95% humidity. The PDC lines were cultured according to standard operating procedures established by the NCI PDMR (https://pdmr.cancer.gov/sops/default.htm). All PDCs were thawed and cultured in Matrigel-coated flasks prepared with a working solution of 1X Ham's F-12 nutrient mix, without supplementation (Invitrogen, Waltham, MA, cat. 11765054), 100 U/mL penicillin-streptomycin (Invitrogen, cat. 15140122), and 2.5% Matrigel (Corning Inc., Corning, NY, cat. 354248) for the first three passages. The 354836-022-R-J1-PDC, 475296-252-R-J1-PDC, and 997726-040-R-J2-PDC lines were cultured in 6A media, which includes advanced DMEM/F-12 (Thermo Fisher Scientific, cat. 12634028), 10 mM HEPES (Thermo Fisher Scientific, cat. 15630080), 1X GlutaMAX supplement (Thermo Fisher Scientific, cat. 35050061), 0.1 mg/mL primocin (InvivoGen, San Diego, CA, cat. ant-pm-2), 10% defined fetal bovine serum, heat inactivated (HyClone Laboratories Inc., Logan, UT, cat. SH30070.03HI), 50% L-WRN conditioned media (ATCC, cat. CRL-3276), 1.25 mM N-Acetyl-L-cysteine (Sigma-Aldrich, cat. A9165), 10 mM nicotinamide (Sigma-Aldrich, cat. N0636), 1X B-27 supplement (Thermo Fisher Scientific, cat. 17504044), 1X N-2 supplement (Thermo Fisher Scientific, cat. 17502048), and 10 microM Y-27632 dihydrochloride (Tocris Bioscience, Bristol, United Kingdom, cat. 1254). The 624824-186-R-J2-PDC line was cultured in 6C/Colon 1B media, which includes all 6A media components plus 50 ng/mL human EGF recombinant protein (Thermo Fisher Scientific, cat. PHG0311). […]
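Note: spheroids exposed to compounds for seven days before readout.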

How did the pIC50 (second compound 0.00316 µM) turn out when Cn1cnc2c(F)c(Nc3ccc(Br)cc3Cl)c(C(=O)NOCCO)cc21 + CC(Nc1ccc2c(c1)OCCn1cc(N3C(=O)OCC3C(F)F)nc1-2)C(N)=O was run?
The pIC50 was 6.36.

What about the pIC50 (second compound 0.01 µM) of the same compound?
Its pIC50 is 6.45.

And the pIC50 (second compound 0.0316 µM)?
The pIC50 was 6.76.

And the pIC50 (second compound 0.1 µM)?
Its pIC50 is 7.06.

And the pIC50 (second compound 0.316 µM)?
The pIC50 was 7.17.

What about the pIC50 (second compound 1 µM) of the same compound?
The pIC50 was > 8.02.

What about the viability, T/C (second compound 0.00316 µM, first compound 0.00949 µM) of the same compound?
The viability, T/C was 86.6%.

And the viability, T/C (second compound 0.00316 µM, first compound 0.03 µM)?
The viability, T/C was 74.4%.

What about the viability, T/C (second compound 0.00316 µM, first compound 0.0949 µM) of the same compound?
Its viability, T/C is 95.9%.

And the viability, T/C (second compound 0.00316 µM, first compound 0.3 µM)?
The viability, T/C was 57.2%.

What about the viability, T/C (second compound 0.00316 µM, first compound 0.949 µM) of the same compound?
The viability, T/C was 32%.

And the viability, T/C (second compound 0.00316 µM, first compound 3 µM)?
Its viability, T/C is 16.8%.

What about the viability, T/C (second compound 0.01 µM, first compound 0.00949 µM) of the same compound?
Its viability, T/C is 92.2%.

What about the viability, T/C (second compound 0.01 µM, first compound 0.03 µM) of the same compound?
The viability, T/C was 101%.

What about the viability, T/C (second compound 0.01 µM, first compound 0.0949 µM) of the same compound?
The viability, T/C was 73%.

And the viability, T/C (second compound 0.01 µM, first compound 0.3 µM)?
Its viability, T/C is 54.4%.

What about the viability, T/C (second compound 0.01 µM, first compound 0.949 µM) of the same compound?
Its viability, T/C is 30%.

And the viability, T/C (second compound 0.01 µM, first compound 3 µM)?
The viability, T/C was 12.9%.

What about the viability, T/C (second compound 0.0316 µM, first compound 0.00949 µM) of the same compound?
Its viability, T/C is 88.6%.

And the viability, T/C (second compound 0.0316 µM, first compound 0.03 µM)?
The viability, T/C was 76.3%.

And the viability, T/C (second compound 0.0316 µM, first compound 0.0949 µM)?
The viability, T/C was 60.1%.

And the viability, T/C (second compound 0.0316 µM, first compound 0.3 µM)?
The viability, T/C was 42.4%.

What about the viability, T/C (second compound 0.0316 µM, first compound 0.949 µM) of the same compound?
The viability, T/C was 20.8%.

What about the viability, T/C (second compound 0.0316 µM, first compound 3 µM) of the same compound?
The viability, T/C was 9.82%.

What about the viability, T/C (second compound 0.1 µM, first compound 0.00949 µM) of the same compound?
Its viability, T/C is 78.7%.

And the viability, T/C (second compound 0.1 µM, first compound 0.03 µM)?
Its viability, T/C is 57.5%.

What about the viability, T/C (second compound 0.1 µM, first compound 0.0949 µM) of the same compound?
Its viability, T/C is 57.5%.

And the viability, T/C (second compound 0.1 µM, first compound 0.3 µM)?
Its viability, T/C is 25.3%.

What about the viability, T/C (second compound 0.1 µM, first compound 0.949 µM) of the same compound?
Its viability, T/C is 17%.

And the viability, T/C (second compound 0.1 µM, first compound 3 µM)?
Its viability, T/C is 8.31%.

What about the viability, T/C (second compound 0.316 µM, first compound 0.00949 µM) of the same compound?
Its viability, T/C is 59.7%.

And the viability, T/C (second compound 0.316 µM, first compound 0.03 µM)?
Its viability, T/C is 59.5%.

What about the viability, T/C (second compound 0.316 µM, first compound 0.0949 µM) of the same compound?
The viability, T/C was 46.9%.

And the viability, T/C (second compound 0.316 µM, first compound 0.3 µM)?
Its viability, T/C is 23.7%.

What about the viability, T/C (second compound 0.316 µM, first compound 0.949 µM) of the same compound?
The viability, T/C was 15.7%.

What about the viability, T/C (second compound 0.316 µM, first compound 3 µM) of the same compound?
The viability, T/C was 5.79%.

And the viability, T/C (second compound 1 µM, first compound 0.00949 µM)?
The viability, T/C was 44.6%.

And the viability, T/C (second compound 1 µM, first compound 0.03 µM)?
Its viability, T/C is 43%.

And the viability, T/C (second compound 1 µM, first compound 0.0949 µM)?
Its viability, T/C is 34.8%.

What about the viability, T/C (second compound 1 µM, first compound 0.3 µM) of the same compound?
The viability, T/C was 22.8%.

What about the viability, T/C (second compound 1 µM, first compound 0.949 µM) of the same compound?
Its viability, T/C is 11.5%.

And the viability, T/C (second compound 1 µM, first compound 3 µM)?
Its viability, T/C is 3.12%.
